# Data taken from US12564638B2 (SHANGHAITECH UNIVERSITY, priority 2019, dated 2026).
# Where two headings read alike, the source gives them in different places.
# Tested on: HCC827 cells (EGFR Exon19 del, non-small cell lung cancer cells)
# Assay: Cell viability assay (WST/CCK8), HCC827 cells
# Format: cell-based
# Conditions: Homo sapiens, HCC827, 72 h, HCC827 (Exon19 Del), 72 hours, read-out: IC50 (half inhibitory concentration)
# Source text: The cell lines with abnormal EGFR expression used are as follows: • HCC827 cells (EGFR Exon19 del, non-small cell lung cancer cells); • PC9 cells (EGFR Exon 19 del, non-small cell lung cancer cells); • PC9BracA1 (EGFR Exon 19 del+T790M, non-small cell lung cancer cells) • H1975 (EGFR Exon T790M+L858R mutation, non-small cell lung cancer cell line) • BT474 cells (HER2 positive breast cancer cells)
# All of the half inhibitory concentrations (IC50) of these compounds of the present invention were determined with WST reagent from Fuyuan Biotec Company. The specific experiment procedures are as follows: Cancer cells were planted in 96-well-plate at the density of 3 000 cells per well with 100 μL RPMI1640 completed culture medium. In the next day, compounds with indicated concentrations were added to the cells, DMSO was used as the negative control and the EGFR TKIs were used to treat cells as the positive groups. After 72 hours drug treatment, cell viability was measured by using the WST reagent following the instructions.
# The cells were treated with the gradient concentration of these compounds (the maximum concentration: 10 μM; 3-fold dilution ratio, 10 concentration gradients) for 72 hours and then incubated with the WST (CCK8) reagent to determine the cell viability.
# [1] = Table 4, gefitinib and sapitinib-based compounds, WST
# [2] = Table 5, afatinib-based compounds, WST
# [3] = Table 3, poziotinib-based compounds, WST (CCK8)
IC50 [1],IC50 [2],SMILES,other results
–,105 nM,"O=C1CCC(N2C(=O)c3cccc(SCCCC(=O)Nc4cc5c(Nc6ccc(F)c(Cl)c6)ncnc5cc4O[C@H]4CCOC4)c3C2=O)C(=O)N1 (stereo partly drawn) [SIAIS184094, N-(4-((3-chloro-4-fluorophenyl)amino)-7-(((S)-tetrahydrofuran-3-yl)oxy)quinazolin-6-yl)-4-((2-(2,6-dioxopiperidin-3-yl)-1,3-dioxoisoindolin-4-yl)thio)butanamide]",–
–,174 nM,"O=C1CCC(N2C(=O)c3cccc(SCCCCCC(=O)Nc4cc5c(Nc6ccc(F)c(Cl)c6)ncnc5cc4O[C@H]4CCOC4)c3C2=O)C(=O)N1 (stereo partly drawn) [SIAIS184095, N-(4-((3-chloro-4-fluorophenyl)amino)-7-(((S)-tetrahydrofuran-3-yl)oxy)quinazolin-6-yl)-6-((2-(2,6-dioxopiperidin-3-yl)-1,3-dioxoisoindolin-4-yl)thio)hexanamide]",–
47 nM,–,"COc1cc2ncnc(Nc3ccc(F)c(Cl)c3)c2cc1OCCCN1CCN(C(=O)CSc2cccc3c2C(=O)N(C2CCC(=O)NC2=O)C3=O)CC1 (centres unmarked) [SIAIS184164, 4-((2-(4-(3-((4-((3-chloro-4-fluorophenyl)amino)-7-methoxyquinazolin-6-yl)oxy)propyl)piperazin-1-yl)-2-oxoethyl)thio)-2-(2,6-dioxopiperidin-3-yl)isoindoline-1,3-dione]",–
58 nM,–,"COc1cc2ncnc(Nc3ccc(F)c(Cl)c3)c2cc1OCCCN1CCN(C(=O)CCCSc2cccc3c2C(=O)N(C2CCC(=O)NC2=O)C3=O)CC1 (centres unmarked) [SIAIS184165, 4-((4-(4-(3-((4-((3-chloro-4-fluorophenyl)amino)-7-methoxyquinazolin-6-yl)oxy)propyl)piperazin-1-yl)-4-oxobutyl)thio)-2-(2,6-dioxopiperidin-3-yl)isoindoline-1,3-dione]",–
124 nM,–,"COc1cc2ncnc(Nc3ccc(F)c(Cl)c3)c2cc1OCCCN1CCN(C(=O)CCCCCSc2cccc3c2CN(C2CCC(=O)NC2=O)C3=O)CC1 (centres unmarked) [SIAIS184186, 3-(4-((6-(4-(3-((4-((3-chloro-4-fluorophenyl)amino)-7-methoxyquinazolin-6-yl)oxy)propyl)piperazin-1-yl)-6-oxohexyl)thio)-1-oxoisoindolin-2-yl)piperidine-2,6-dione]",–

# The next lines start with the molecule.
SMILES,IC50 [1],IC50 [2],other results
"C=CC(=O)Nc1cc2c(Nc3ccc(F)c(Cl)c3)ncnc2cc1OCCCN1CCNCC1 [Caneritinib derivative A (SIAIS293064), N-(4-((3-chloro-4-fluorophenyl)amino)-7-(3-(piperazin-1-yl)propoxy)quinazolin-6-yl)acrylamide]",–,–,"IC50 (Table 6, canertinib-based compounds, WST): 4.5 nM"
"COc1cc2ncnc(Nc3ccc(F)c(Cl)c3)c2cc1OCCCN1CCNCC1 [Gefitinib derivative A (SIAIS184161), N-(3-chloro-4-fluorophenyl)-7-methoxy-6-(3-(piperazin-1-yl)propoxy)quinazolin-4-amine]",10 nM,–,–
"COc1cc2ncnc(Nc3ccc(F)c(Cl)c3)c2cc1OC1CCN(CC(=O)O)CC1 [Gefitinib derivative C (SIAIS293033), 2-(4-((4-((3-chloro-4-fluorophenyl)amino)-7-methoxyquinazolin-6-yl)oxy)piperidin-1-yl)acetic acid]",575 nM,–,–
"O=C1CCC(N2C(=O)c3cccc(SCC(=O)Nc4cc5c(Nc6ccc(F)c(Cl)c6)ncnc5cc4O[C@H]4CCOC4)c3C2=O)C(=O)N1 (stereo partly drawn) [SIAIS184093, N-(4-((3-chloro-4-fluorophenyl)amino)-7-(((S)-tetrahydrofuran-3-yl)oxy)quinazolin-6-yl)-2-((2-(2,6-dioxopiperidin-3-yl)-1,3-dioxoisoindolin-4-yl)thio)acetamide]",–,86.2 nM,–
"O=C1CCC(N2C(=O)c3cccc(SCCOCC(=O)Nc4cc5c(Nc6ccc(F)c(Cl)c6)ncnc5cc4O[C@H]4CCOC4)c3C2=O)C(=O)N1 (stereo partly drawn) [SIAIS184152, N-(4-((3-chloro-4-fluorophenyl)amino)-7-(((S)-tetrahydrofuran-3-yl)oxy)quinazolin-6-yl)-2-(2-((2-(2,6-dioxopiperidin-3-yl)-1,3-dioxoisoindolin-4-yl)thio)ethoxy)acetamide]",–,131 nM,–
"O=C1CCC(N2C(=O)c3cccc(SCCOCCOCC(=O)Nc4cc5c(Nc6ccc(F)c(Cl)c6)ncnc5cc4O[C@H]4CCOC4)c3C2=O)C(=O)N1 (stereo partly drawn) [SIAIS184153, N-(4-((3-chloro-4-fluorophenyl)amino)-7-(((S)-tetrahydrofuran-3-yl)oxy)quinazolin-6-yl)-2-(2-(2-((2-(2,6-dioxopiperidin-3-yl)-1,3-dioxoisoindolin-4-yl)thio)ethoxy)ethoxy)acetamide]",–,316 nM,–
"O=C1CCC(N2C(=O)c3cccc(SCCOCCOCCOCC(=O)Nc4cc5c(Nc6ccc(F)c(Cl)c6)ncnc5cc4O[C@H]4CCOC4)c3C2=O)C(=O)N1 (stereo partly drawn) [SIAIS184154, N-(4-((3-chloro-4-fluorophenyl)amino)-7-(((S)-tetrahydrofuran-3-yl)oxy)quinazolin-6-yl)-2-(2-(2-(2-((2-(2,6-dioxopiperidin-3-yl)-1,3-dioxoisoindolin-4-yl)thio)ethoxy)ethoxy)ethoxy)acetamide]",–,250 nM,–
"O=C1CCC(N2C(=O)c3cccc(SCCOCCOCCOCCOCC(=O)Nc4cc5c(Nc6ccc(F)c(Cl)c6)ncnc5cc4O[C@H]4CCOC4)c3C2=O)C(=O)N1 (stereo partly drawn) [SIAIS184155, N-(4-((3-chloro-4-fluorophenyl)amino)-7-(((S)-tetrahydrofuran-3-yl)oxy)quinazolin-6-yl)-14-((2-(2,6-dioxopiperidin-3-yl)-1,3-dioxoisoindolin-4-yl)thio)-3,6,9,12-tetraoxatetradecan-1-amide]",–,79 nM,–
"O=C1CCC(N2C(=O)c3cccc(SCCOCCOCCOCCOCCOCC(=O)Nc4cc5c(Nc6ccc(F)c(Cl)c6)ncnc5cc4O[C@H]4CCOC4)c3C2=O)C(=O)N1 (stereo partly drawn) [SIAIS184156, N-(4-((3-chloro-4-fluorophenyl)amino)-7-(((S)-tetrahydrofuran-3-yl)oxy)quinazolin-6-yl)-17-((2-(2,6-dioxopiperidin-3-yl)-1,3-dioxoisoindolin-4-yl)thio)-3,6,9,12,15-pentaoxaheptadecan-1-amide]",–,978 nM,–
"COc1cc2ncnc(Nc3ccc(F)c(Cl)c3)c2cc1OCCCN1CCN(C(=O)COCCOCCOCCOCCOCCSc2cccc3c2C(=O)N(C2CCC(=O)NC2=O)C3=O)CC1 (centres unmarked) [SIAIS184170, 4-((17-(4-(3-((4-((3-chloro-4-fluorophenyl)amino)-7-methoxyquinazolin-6-yl)oxy)propyl)piperazin-1-yl)-17-oxo-3,6,9,12,15-pentaoxaheptadecyl)thio)-2-(2,6-dioxopiperidin-3-yl)isoindoline-1,3-dione]",186 nM,–,–
"COc1cc2ncnc(Nc3ccc(F)c(Cl)c3)c2cc1OCCCN1CCN(C(=O)CSc2cccc3c2CN(C2CCC(=O)NC2=O)C3=O)CC1 (centres unmarked) [SIAIS184184, 3-(4-((2-(4-(3-((4-((3-chloro-4-fluorophenyl)amino)-7-methoxyquinazolin-6-yl)oxy)propyl)piperazin-1-yl)-2-oxoethyl)thio)-1-oxoisoindolin-2-yl)piperidine-2,6-dione]",100 nM,–,–
"COc1cc2ncnc(Nc3ccc(F)c(Cl)c3)c2cc1OCCCN1CCN(C(=O)CCCSc2cccc3c2CN(C2CCC(=O)NC2=O)C3=O)CC1 (centres unmarked) [SIAIS184185, 3-(4-((4-(4-(3-((4-((3-chloro-4-fluorophenyl)amino)-7-methoxyquinazolin-6-yl)oxy)propyl)piperazin-1-yl)-4-oxobutyl)thio)-1-oxoisoindolin-2-yl)piperidine-2,6-dione]",113 nM,–,–
"COc1cc2ncnc(Nc3ccc(Cl)c(Cl)c3F)c2cc1OC1CCN(C(=O)CCCCCSc2cccc3c2C(=O)N(C2CCC(=O)NC2=O)C3=O)CC1 (centres unmarked) [SIAIS249018, 4-((6-(4-((4-((3,4-dichloro-2-fluorophenyl)amino)-7-methoxyquinazolin-6-yl)oxy)piperidin-1-yl)-6-oxohexyl)thio)-2-(2,6-dioxopiperidin-3-yl)isoindoline-1,3-dione]",–,–,IC50 [3]: 13.3 nM
"COc1cc2ncnc(Nc3ccc(Cl)c(Cl)c3F)c2cc1OC1CCN(C(=O)CCCCCCSc2cccc3c2C(=O)N(C2CCC(=O)NC2=O)C3=O)CC1 (centres unmarked) [SIAIS249019, 4-((7-(4-((4-((3,4-dichloro-2-fluorophenyl)amino)-7-methoxyquinazolin-6-yl)oxy)piperidin-1-yl)-7-oxoheptyl)thio)-2-(2,6-dioxopiperidin-3-yl)isoindoline-1,3-dione]",–,–,IC50 [3]: 38 nM
"COc1cc2ncnc(Nc3ccc(Cl)c(Cl)c3F)c2cc1OC1CCN(C(=O)CCC(=O)N[C@H](C(=O)N2C[C@H](O)C[C@H]2C(=O)NCc2ccc(-c3scnc3C)cc2)C(C)(C)C)CC1 [SIAIS249020, (2S,4R)-1-((S)-2-(4-(4-((4-((3,4-dichloro-2-fluorophenyl)amino)-7-methoxyquinazolin-6-yl)oxy)piperidin-1-yl)-4-oxobutanamido)-3,3-dimethylbutanoyl)-4-hydroxy-N-(4-(4-methylthiazol-5-yl)benzyl)pyrrolidine-2-carboxamide]",–,–,IC50 [3]: 75.5 nM
